In the supplement of paper PMC10627819:

Columns and labels:
S. pneumoniae D39V [1] = assay: Bliss interaction score (quartile over a dose matrix) (fitness difference); higher = more antagonism (negative = synergy)
Outline: (§1)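 Each plate was normalised to the robust mean of its own no-drug wells, using OD595 at entry into stationary phase, with values capped at 1. This normalised growth is the fitness value. The Bliss score is the difference between observed and product-expected fitness, with single-drug fitness inferred from the combination data and quartiles taken over technical, biological and donor/recipient replicates.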

S. aureus Newman [2] = assay: as above
Outline: as §1

S. aureus DSM 20231 [3] = assay: as above
Outline: as §1

B. subtilis 168 = assay: as above
Outline: as §1

S. aureus Newman [4] = assay: fitness (endpoint OD595 vs no drug) (fraction); higher = more growth
Outline: (§2)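 Fitness was defined as the optical density at the transition into stationary phase relative to the robust mean of no-drug control wells. Values were capped at 1. Cultures were started at OD595 0.01 in 384-well plates (30 µl, or 55 µl for S. pneumoniae) in TSB, LB Lennox or CY at 37 °C. OD595 was recorded every 30 min over 14 h, with the first reading subtracted as background.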

S. aureus DSM 20231 [5] = assay: as above
Outline: as §2

S. pneumoniae D39V [6] = assay: as above
Outline: as §2
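Wherever Bliss interaction score (quartile over a dose matrix) is given: first quartile when negative (synergy) and third quartile when positive (antagonism).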

CO/N=C(\C(=O)N[C@@H]1C(=O)N2C(C(=O)O)=C(COC(C)=O)CS[C@H]12)c1csc(N)n1 [Cefotaxime] + CCCCCCCCCC(=O)N[C@@H]1[C@H]([C@@H]([C@H](O[C@H]1OC2=C3C=C4C=C2OC5=C(C=C(C=C5)[C@H]([C@H]6C(=O)N[C@@H](C7=C(C(=CC(=C7)O)OC8[C@H]([C@H]([C@@H]([C@H](O8)CO)O)O)O)C9=C(C=CC(=C9)[C@H](C(=O)N6)NC(=O)[C@@H]4NC(=O)[C@@H]1C2=CC(=CC(=C2)OC2=C(C=CC(=C2)[C@H](C(=O)N[C@H](CC2=CC(=C(O3)C=C2)Cl)C(=O)N1)N)O)O)O)C(=O)O)O[C@H]1[C@@H]([C@H]([C@@H]([C@H](O1)CO)O)O)NC(=O)C)Cl)CO)O)O [Teicoplanin]
main component drawn
Conditions	Bliss interaction score
B. subtilis 168	-0.0867
S. aureus DSM 20231 [3]	-0.0684
S. aureus Newman [2]	-0.0611
S. pneumoniae D39V [1]	-0.0543

fitness, one replicate, main component drawn
Conditions	partner 0.1562 µg/mL	partner 0.3125 µg/mL	partner 0.62 µg/mL	partner 0.625 µg/mL	partner 1.24 µg/mL	partner 2.48 µg/mL
S. aureus DSM 20231 [5], first compound 0.039 µg/mL	0.672	0.754	–	0.786	–	–
S. aureus Newman [4], first compound 0.039 µg/mL	–	–	0.563	–	0.614	0.405
S. aureus Newman [4], first compound 0.078 µg/mL	–	–	0.592	–	0.531	0.203
S. aureus Newman [4], first compound 0.156 µg/mL	–	–	0.459	–	0.487	0.094
S. aureus Newman [4], first compound 0.312 µg/mL	–	–	0.453	–	0.436	0.0757
S. aureus Newman [4], first compound 0.625 µg/mL	0.0055	0.0074	–	0.152	–	–
S. aureus Newman [4], first compound 1.25 µg/mL	0.0152	0.0026	–	0.0074	–	–
S. aureus Newman [4], first compound 2.5 µg/mL	0.0359	0.0126	–	0.0149	–	–

fitness, main component drawn
Conditions	first compound 0.078 µg/mL	first compound 0.156 µg/mL	first compound 0.312 µg/mL
S. aureus DSM 20231 [5], partner 0.1562 µg/mL	0.791	0.705	0.667
S. aureus DSM 20231 [5], partner 0.3125 µg/mL	0.828	0.775	0.665
S. aureus DSM 20231 [5], partner 0.625 µg/mL	0.826	0.716	0.663
S. aureus Newman [4], partner 0.1562 µg/mL	0.684	0.52	0.343
S. aureus Newman [4], partner 0.3125 µg/mL	0.672	0.498	0.356
S. aureus Newman [4], partner 0.625 µg/mL	0.574	0.46	0.315

CO/N=C(\C(=O)N[C@@H]1C(=O)N2C(C(=O)O)=C(COC(C)=O)CS[C@H]12)c1csc(N)n1 [Cefotaxime] + CN[C@H](CC(C)C)C(=O)N[C@H]1C(=O)N[C@@H](CC(N)=O)C(=O)N[C@H]2C(=O)N[C@H]3C(=O)N[C@H](C(=O)N[C@H](C(=O)O)c4cc(O)cc(O)c4-c4cc3ccc4O)[C@H](O)c3ccc(c(Cl)c3)Oc3cc2cc(c3O[C@@H]2O[C@H](CO)[C@@H](O)[C@H](O)[C@H]2O[C@H]2C[C@](C)(N)[C@H](O)[C@H](C)O2)Oc2ccc(cc2Cl)[C@H]1O [Vancomycin]
Conditions	Bliss interaction score
B. subtilis 168	-0.0945
S. aureus DSM 20231 [3]	-0.0428
S. aureus Newman [2]	-0.0425
S. pneumoniae D39V [1]	-0.084

Conditions	fitness
S. aureus DSM 20231 [5], first compound 0.039 µg/mL, partner 0.1875 µg/mL	0.791
S. aureus DSM 20231 [5], first compound 0.039 µg/mL, partner 0.375 µg/mL	0.78
S. aureus DSM 20231 [5], first compound 0.039 µg/mL, partner 0.75 µg/mL	0.805
S. aureus DSM 20231 [5], first compound 0.078 µg/mL, partner 0.1875 µg/mL	0.715
S. aureus DSM 20231 [5], first compound 0.078 µg/mL, partner 0.375 µg/mL	0.795
S. aureus DSM 20231 [5], first compound 0.078 µg/mL, partner 0.75 µg/mL	0.752
S. aureus DSM 20231 [5], first compound 0.156 µg/mL, partner 0.1875 µg/mL	0.629
S. aureus DSM 20231 [5], first compound 0.156 µg/mL, partner 0.375 µg/mL	0.698
S. aureus DSM 20231 [5], first compound 0.156 µg/mL, partner 0.75 µg/mL	0.772
S. aureus DSM 20231 [5], first compound 0.312 µg/mL, partner 0.1875 µg/mL	0.641
S. aureus DSM 20231 [5], first compound 0.312 µg/mL, partner 0.375 µg/mL	0.733
S. aureus DSM 20231 [5], first compound 0.312 µg/mL, partner 0.75 µg/mL	0.82
S. aureus Newman [4], first compound 0.078 µg/mL, partner 0.1875 µg/mL	0.723
S. aureus Newman [4], first compound 0.078 µg/mL, partner 0.375 µg/mL	0.758
S. aureus Newman [4], first compound 0.078 µg/mL, partner 0.75 µg/mL	0.761
S. aureus Newman [4], first compound 0.156 µg/mL, partner 0.1875 µg/mL	0.62
S. aureus Newman [4], first compound 0.156 µg/mL, partner 0.375 µg/mL	0.648
S. aureus Newman [4], first compound 0.156 µg/mL, partner 0.75 µg/mL	0.614
S. aureus Newman [4], first compound 0.625 µg/mL, partner 0.1875 µg/mL	0.0427
S. aureus Newman [4], first compound 0.625 µg/mL, partner 0.375 µg/mL	0.0413
S. aureus Newman [4], first compound 0.625 µg/mL, partner 0.75 µg/mL	0.0855
S. aureus Newman [4], first compound 1.25 µg/mL, partner 0.1875 µg/mL	0.0418
S. aureus Newman [4], first compound 1.25 µg/mL, partner 0.375 µg/mL	0.0511
S. aureus Newman [4], first compound 1.25 µg/mL, partner 0.75 µg/mL	0.0481
S. aureus Newman [4], first compound 2.5 µg/mL, partner 0.1875 µg/mL	0.036
S. aureus Newman [4], first compound 2.5 µg/mL, partner 0.375 µg/mL	0.0526
S. aureus Newman [4], first compound 2.5 µg/mL, partner 0.75 µg/mL	0.0388
S. pneumoniae D39V [6], first compound 0.0018 µg/mL, partner 0.03125 µg/mL	≥ 1
S. pneumoniae D39V [6], first compound 0.0018 µg/mL, partner 0.0625 µg/mL	0.892
S. pneumoniae D39V [6], first compound 0.0018 µg/mL, partner 0.125 µg/mL	0.907
S. pneumoniae D39V [6], first compound 0.0018 µg/mL, partner 0.25 µg/mL	0.909
S. pneumoniae D39V [6], first compound 0.0018 µg/mL, partner 0.5 µg/mL	0.0621
S. pneumoniae D39V [6], first compound 0.0035 µg/mL, partner 0.03125 µg/mL	0.94
S. pneumoniae D39V [6], first compound 0.0035 µg/mL, partner 0.0625 µg/mL	0.803
S. pneumoniae D39V [6], first compound 0.0035 µg/mL, partner 0.25 µg/mL	0.793
S. pneumoniae D39V [6], first compound 0.0035 µg/mL, partner 0.5 µg/mL	0.047
S. pneumoniae D39V [6], first compound 0.007 µg/mL, partner 0.25 µg/mL	0.257
S. pneumoniae D39V [6], first compound 0.007 µg/mL, partner 0.5 µg/mL	0.0521

fitness, S. aureus Newman [4], one replicate
Conditions	partner 0.1875 µg/mL	partner 0.375 µg/mL	partner 0.75 µg/mL
first compound 0.039 µg/mL	0.732	0.867	0.784
first compound 0.312 µg/mL	0.34	0.353	0.395

CO/N=C(\C(=O)N[C@@H]1C(=O)N2C(C(=O)O)=C(COC(C)=O)CS[C@H]12)c1csc(N)n1 [Cefotaxime] + Cn1nnc(-c2ccc(-c3ccc(N4C[C@H](CO)OC4=O)cc3F)cn2)n1 [Tedizolid]
Conditions	Bliss interaction score
B. subtilis 168	0.0923
S. aureus DSM 20231 [3]	0.114
S. aureus Newman [2]	-0.105
S. pneumoniae D39V [1]	0.0955

fitness
Conditions	partner 0.03125 µg/mL	partner 0.0625 µg/mL	partner 0.125 µg/mL	partner 0.25 µg/mL	partner 0.5 µg/mL
S. aureus DSM 20231 [5], first compound 0.078 µg/mL	–	0.767	0.718	0.532	–
S. aureus DSM 20231 [5], first compound 0.156 µg/mL	–	0.761	0.608	0.509	–
S. aureus DSM 20231 [5], first compound 0.312 µg/mL	–	0.691	0.602	0.448	–
S. aureus Newman [4], first compound 0.078 µg/mL	–	0.592	0.475	0.217	–
S. aureus Newman [4], first compound 0.156 µg/mL	–	0.455	0.338	0.0974	–
S. aureus Newman [4], first compound 0.312 µg/mL	–	0.232	0.145	0.0726	–
S. aureus Newman [4], first compound 0.625 µg/mL	–	0.0654	0.0082	0.0399	–
S. aureus Newman [4], first compound 1.25 µg/mL	–	0.021	0.0172	0.03	–
S. aureus Newman [4], first compound 2.5 µg/mL	–	0.0122	0.0108	0.0325	–
S. pneumoniae D39V [6], first compound 0.0018 µg/mL	0.968	0.969	0.844	0.482	0.172
S. pneumoniae D39V [6], first compound 0.0035 µg/mL	0.953	0.972	0.847	0.468	0.14
S. pneumoniae D39V [6], first compound 0.007 µg/mL	0.95	0.958	0.812	0.427	0.104

S. aureus DSM 20231 [5], first compound 0.039 µg/mL, one replicate
Conditions	fitness
partner 0.0625 µg/mL	0.806
partner 0.125 µg/mL	0.762
partner 0.25 µg/mL	0.643
